Results as given in patent US10457707B2, “Substituted urea depsipeptide analogs as activators of the CLPP endopeptidase” (priority 2015, dated 2019).
Values after ≈ are worked out from the molar mass of the structure shown. *1 amine or outer side, *2 acyl side, *3 side chain or, on linkers, in order; H or OH if unused. Where a SMILES comes first, the peptide text is derived from it. Bridges are numbered along the chain shown (N, C = ends). [ ]: non-standard residue; d: D form. The star is where a group is joined. ξ: configuration not given here. Phe(3,5-F2) = N[C@@H](Cc1cc(F)cc(F)c1)C(=O)O; NMepT = CN[C@H](C(=O)O)[C@@H](C)OP(=O)(O)O; NH(4-OCF3-phenyl) = FC(F)(F)Oc1ccc(N*)cc1; Pro(4S-Me) = C[C@@H]1CN[C@H](C(=O)O)C1; Pro(4R-Me) = C[C@H]1CN[C@H](C(=O)O)C1; ξPro(4R-OH) = O=C(O)C1C[C@@H](O)CN1; NMeaThr = CN[C@H](C(=O)O)[C@H](C)O; ξPro(4R-Me) = C[C@H]1CNC(C(=O)O)C1; NH(4-Et-phenyl) = CCc1ccc(N*)cc1; NMeT = CN[C@H](C(=O)O)[C@@H](C)O; NH(4-Me-phenyl) = Cc1ccc(N*)cc1; aThr = C[C@H](O)[C@H](N)C(=O)O; NMeA = CN[C@@H](C)C(=O)O; CO = O=C([*:1])[*:2]

Tests used:
[1] = target: T1, Sa-ClpP (Staphylococcus aureus, UniProt Q2G036); test: Casein-BODIPY assay, second described ClpP activation method (EnzCheck Protease Assay, 384 well); type: biochemical, S. aureus; conditions: values marked †: second described ClpP activation assay
T1 construct: made in house; host or cells: E. coli BL21(DE3)
T1 sequence (Q2G036 1-195): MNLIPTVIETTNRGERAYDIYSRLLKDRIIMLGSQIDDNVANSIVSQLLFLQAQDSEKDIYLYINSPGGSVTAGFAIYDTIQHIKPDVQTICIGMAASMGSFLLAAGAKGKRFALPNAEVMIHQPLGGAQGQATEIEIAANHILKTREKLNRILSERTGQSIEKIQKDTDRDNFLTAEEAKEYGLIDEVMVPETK
Procedure: Alternatively, the assay was carried out using EnzCheck Protease Assay (Molecular Probes, Catalog # E6638). The assay was performed in black 384 well, flat bottom, low volume plates (Greiner Bio-One, Monroe, N.C., catalog #784076). 10 μL of Tris*HCl buffer, pH 8.0 with 0.01% Triton X-100 was pipetted into each well using a Well-Mate (Thermo Scientific, Waltham, Mass.). 0.4 μL test compounds or controls (2% DMSO v/v) were added to each well using a Biomek FX liquid handling robot (Beckman Coulter, Indianapolis Ind.). After addition of test compounds and controls, 10 μL of master mix containing 2 μM Sa-ClpP and 2 μM substrate (Bodipy-FL labeled casein) in Tris*HCl buffer, pH 8.0 with 0.01% (v/v) Triton X-100, was pipetted into each well. All assays were performed in triplicate, under linear velocity conditions. Increase in fluorescent signal following activation of Sa-ClpP by test compounds and controls was measured over time period of 30 mins using filters with excitation at 485±15 nm and emission at 520±25 nm on a PHERAstar FS Multilabel reader (BMG, Cary, N.C.). […] Data analysis was done by measuring rate of casein degradation over time (slopes). Computed degradation rates (slopes) were normalized to positive (ADEP4) or negative (DMSO) controls. Using nonlinear regression curve fitting EC50 values and % activation were determined using the equation “log [agonist] vs. Response-variable slope (four parameters)-symmetrical” in the program Prism 6 (GraphPad Software, La Jolla, Calif. USA, www.graphpad.com).

[2] = system: Streptococcus pneumoniae, R6; test: Minimal inhibitory concentration assay; type: cell-based; conditions: read-out: Minimal Inhibitory Concentrations S. pneumoniae R6
Method in brief: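 Microbroth dilution with two-fold serial compound dilutions in broth, incubated aerobically overnight at 37° C. MIC taken as the lowest concentration preventing bacterial growth.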

[3] = target: T1, Sa-ClpP; test: Sa-ClpP casein-BODIPY ClpP activation assay, method variant not marked in Table 5; type: biochemical, S. aureus; conditions: values without ** or † mark; assay variant not stated; read-out: ClpP Activation EC50
Method in brief: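 Purified S. aureus ClpP (10 μM) incubated with 25 μg/ml BODIPY FL casein and compound (0-1000 μM) in pH 8 Tris/KCl/TCEP at 37° C. Fluorescence (485/528 nm) read every 5 min over 45 min; reaction velocities fitted to dose-response for EC50 (50% activation), triplicate.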

[4] = physchem; conditions: 22 °C, aqueous buffer, kinetic from dmso stock

Structure (SMILES): Cc1ccc(NC(=O)N[C@@H](Cc2cc(F)cc(F)c2)C(=O)N[C@@H]2C(=O)N3C[C@H](O)CC3C(=O)N(C)[C@@H](C)C(=O)N[C@@H](C)C(=O)N3C[C@H](C)CC3C(=O)O[C@H]2C)cc1 (stereo partly drawn) [Compound 31, (S)-3-(3,5-difluorophenyl)-N-((2S,6S,9S,11aS,13R,17S,18S,20aS)-13-hydroxy-2,6,9,10,18-pentamethyl-5,8,11,16,20-pentaoxohexadecahydro-1H,5H,16H-dipyrrolo[2,1-c:2′,1′-l][1]oxa[4,7,10,13]tetraazacyclohexadecin-17-yl)-2-(3-(p-tolyl)ureido)propanamide] ({NH(4-Me-phenyl)-CO}-[Phe(3,5-F2)][aThr][ξPro(4R-OH)][NMeA]A[ξPro(4R-Me)]; ester 2-C)
- EC50 [1]: 370 ± 30 nM
- MIC [2]: 0.195 µM (≈ 0.156 µg/mL)

Structure (SMILES): C[C@H]1C[C@H]2C(=O)O[C@@H](C)[C@H](NC(=O)[C@H](Cc3cc(F)cc(F)c3)NC(=O)Nc3ccc(OC(F)(F)F)cc3)C(=O)N3CCC[C@H]3C(=O)N(C)[C@@H]([C@@H](C)O)C(=O)N[C@@H](C)C(=O)N2C1 [Compound 36, (S)-3-(3,5-difluorophenyl)-N-((2S,6S,9S,11aS,17S,18S,20aS)-9-((R)-1-hydroxyethyl)-2,6,10,18-tetramethyl-5,8,11,16,20-pentaoxohexadecahydro-1H,5H,16H-dipyrrolo[2,1-c:2′,1′-l][1]oxa[4,7,10,13]tetraazacyclohexadecin-17-yl)-2-(3-(4-(trifluoromethoxy)phenyl)ureido)propanamide] ({NH(4-OCF3-phenyl)-CO}-[Phe(3,5-F2)][aThr]P[NMeT]A[Pro(4S-Me)]; ester 2-C)
- EC50 [1]: 430 ± 10 nM
- MIC [2]: 0.024 µM (≈ 0.0212 µg/mL)

Structure (SMILES): Cc1ccc(NC(=O)N[C@@H](Cc2cc(F)cc(F)c2)C(=O)N[C@@H]2C(=O)N3CCC[C@H]3C(=O)N(C)[C@@H]([C@@H](C)OP(=O)(O)O)C(=O)N[C@@H](C)C(=O)N3C[C@@H](C)C[C@H]3C(=O)O[C@H]2C)cc1 [Compound 188, (R)-1-((2S,6S,9S,11aS,17S,18S,20aS)-17-((S)-3-(3,5-difluorophenyl)-2-(3-(p-tolyl)ureido)propanamido)-2,6,10,18-tetramethyl-5,8,11,16,20-pentaoxohexadecahydro-1H,5H,16H-dipyrrolo[2,1-c:2′,1′-l][1]oxa[4,7,10,13]tetraazacyclohexadecin-9-yl)ethyl dihydrogen phosphate] ({NH(4-Me-phenyl)-CO}-[Phe(3,5-F2)][aThr]P[NMepT]A[Pro(4S-Me)]; ester 2-C)
- EC50 [3]: 1800 ± 70 nM
- MIC [2]: 13 µM
- solubility [4]: 107 ± 2.7 µM

Structure (SMILES): C[C@@H]1C[C@H]2C(=O)O[C@@H](C)[C@H](NC(=O)[C@H](Cc3cc(F)cc(F)c3)NC(=O)Nc3ccc(OC(F)(F)F)cc3)C(=O)N3CCC[C@H]3C(=O)N(C)[C@@H]([C@@H](C)O)C(=O)N[C@@H](C)C(=O)N2C1 [Compound 41, (S)-3-(3,5-difluorophenyl)-N-((2R,6S,9S,11aS,17S,18S,20aS)-9-((R)-1-hydroxyethyl)-2,6,10,18-tetramethyl-5,8,11,16,20-pentaoxohexadecahydro-1H,5H,16H-dipyrrolo[2,1-c:2′,1′-l][1]oxa[4,7,10,13]tetraazacyclohexadecin-17-yl)-2-(3-(4-(trifluoromethoxy)phenyl)ureido)propanamide] ({NH(4-OCF3-phenyl)-CO}-[Phe(3,5-F2)][aThr]P[NMeT]A[Pro(4R-Me)]; ester 2-C)
- EC50 [1]: 310 ± 10 nM
- MIC [2]: 0.02 µM (≈ 0.0176 µg/mL)

Structure (SMILES): CCc1ccc(NC(=O)N[C@@H](Cc2cc(F)cc(F)c2)C(=O)N[C@@H]2C(=O)N3CCC[C@H]3C(=O)N(C)[C@@H]([C@@H](C)O)C(=O)N[C@@H](C)C(=O)N3C[C@@H](C)C[C@H]3C(=O)O[C@H]2C)cc1 [Compound 37, (S)-3-(3,5-difluorophenyl)-2-(3-(4-ethylphenyl)ureido)-N-((2S,6S,9S,11aS,17S,18S,20aS)-9-((R)-1-hydroxyethyl)-2,6,10,18-tetramethyl-5,8,11,16,20-pentaoxohexadecahydro-1H,5H,16H-dipyrrolo[2,1-c:2′,1′-l][1]oxa[4,7,10,13]tetraazacyclohexadecin-17-yl)propanamide] ({NH(4-Et-phenyl)-CO}-[Phe(3,5-F2)][aThr]P[NMeT]A[Pro(4S-Me)]; ester 2-C)
- EC50 [1]: 350 ± 10 nM
- MIC [2]: 0.024 µM (≈ 0.0198 µg/mL)

Structure (SMILES): CCc1ccc(NC(=O)N[C@@H](Cc2cc(F)cc(F)c2)C(=O)N[C@@H]2C(=O)N3CCC[C@H]3C(=O)N(C)[C@@H]([C@@H](C)O)C(=O)N[C@@H](C)C(=O)N3C[C@H](C)C[C@H]3C(=O)O[C@H]2C)cc1 [Compound 42, (S)-3-(3,5-difluorophenyl)-2-(3-(4-ethylphenyl)ureido)-N-((2R,6S,9S,11aS,17S,18S,20aS)-9-((R)-1-hydroxyethyl)-2,6,10,18-tetramethyl-5,8,11,16,20-pentaoxohexadecahydro-1H,5H,16H-dipyrrolo[2,1-c:2′,1′-l][1]oxa[4,7,10,13]tetraazacyclohexadecin-17-yl)propanamide] ({NH(4-Et-phenyl)-CO}-[Phe(3,5-F2)][aThr]P[NMeT]A[Pro(4R-Me)]; ester 2-C)
- EC50 [1]: 250 ± 30 nM
- MIC [2]: 0.01 µM (≈ 0.00826 µg/mL)

Structure (SMILES): Cc1ccc(NC(=O)N[C@@H](Cc2cc(F)cc(F)c2)C(=O)N[C@@H]2C(=O)N3CCC[C@H]3C(=O)N(C)[C@@H]([C@@H](C)O)C(=O)N[C@@H](C)C(=O)N3C[C@@H](C)C[C@H]3C(=O)O[C@H]2C)cc1 [Compound 35, (S)-3-(3,5-difluorophenyl)-N-((2S,6S,9S,11aS,17S,18S,20aS)-9-((R)-1-hydroxyethyl)-2,6,10,18-tetramethyl-5,8,11,16,20-pentaoxohexadecahydro-1H,5H,16H-dipyrrolo[2,1-c:2′,1′-l][1]oxa[4,7,10,13]tetraazacyclohexadecin-17-yl)-2-(3-(p-tolyl)ureido)propanamide] ({NH(4-Me-phenyl)-CO}-[Phe(3,5-F2)][aThr]P[NMeT]A[Pro(4S-Me)]; ester 2-C)
- EC50 [1]: 480 ± 30 nM
- MIC [2]: 0.049 µM (≈ 0.0398 µg/mL)

Structure (SMILES): C[C@H]1C[C@H]2C(=O)O[C@@H](C)[C@H](NC(=O)[C@H](Cc3cc(F)cc(F)c3)NC(=O)Nc3ccc(OC(F)(F)F)cc3)C(=O)N3CCC[C@H]3C(=O)N(C)[C@@H]([C@H](C)O)C(=O)N[C@@H](C)C(=O)N2C1 [Compound 203, (S)-3-(3,5-difluorophenyl)-N-((2S,6S,9S,11aS,17S,18S,20aS)-9-((S)-1-hydroxyethyl)-2,6,10,18-tetramethyl-5,8,11,16,20-pentaoxohexadecahydro-1H,5H,16H-dipyrrolo[2,1-c:2′,1′-l][1]oxa[4,7,10,13]tetraazacyclohexadecin-17-yl)-2-(3-(4-(trifluoromethoxy)phenyl)ureido)propanamide] ({NH(4-OCF3-phenyl)-CO}-[Phe(3,5-F2)][aThr]P[NMeaThr]A[Pro(4S-Me)]; ester 2-C)
- EC50 [3]: 430 ± 10 nM
- MIC [2]: 0.024 µM (≈ 0.0212 µg/mL)

Structure (SMILES): Cc1ccc(NC(=O)N[C@@H](Cc2cc(F)cc(F)c2)C(=O)N[C@@H]2C(=O)N3CCC[C@H]3C(=O)N(C)[C@@H]([C@@H](C)O)C(=O)N[C@@H](C)C(=O)N3C[C@H](C)C[C@H]3C(=O)O[C@H]2C)cc1 [Compound 38, (S)-3-(3,5-difluorophenyl)-N-((2R,6S,9S,11aS,17S,18S,20aS)-9-((R)-1-hydroxyethyl)-2,6,10,18-tetramethyl-5,8,11,16,20-pentaoxohexadecahydro-1H,5H,16H-dipyrrolo[2,1-c:2′,1′-l][1]oxa[4,7,10,13]tetraazacyclohexadecin-17-yl)-2-(3-(p-tolyl)ureido)propanamide] ({NH(4-Me-phenyl)-CO}-[Phe(3,5-F2)][aThr]P[NMeT]A[Pro(4R-Me)]; ester 2-C)
- EC50 [1]: 330 ± 10 nM
- MIC [2]: 0.02 µM (≈ 0.0162 µg/mL)
